Data: PubChem BioAssay (NCI)
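Following 48 hours of exposure in 96-well plates, responses at five concentrations were used to interpolate endpoints linearly. TGI: concentration producing complete growth inhibition.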

Assays:
Experiment in all cases: NCI anticancer screen, dose series, 48 h
K-562 leukemia = system: K-562 leukemia
OVCAR-3 ovarian = system: OVCAR-3 ovarian
COLO 205 colon = system: COLO 205 colon
HOP-18 NSCLC = system: HOP-18 NSCLC
OVCAR-4 ovarian = system: OVCAR-4 ovarian
MALME-3M melanoma = system: MALME-3M melanoma
A549 NSCLC = system: A549 NSCLC
SK-OV-3 ovarian = system: SK-OV-3 ovarian
HL-60(TB) leukemia = system: HL-60(TB) leukemia
NCI-H23 lung = system: NCI-H23 lung
U251 CNS = system: U251 CNS
NCI-H460 lung = system: NCI-H460 lung
786-0 renal = system: 786-0 renal
SNB-19 CNS = system: SNB-19 CNS
SF-295 CNS = system: SF-295 CNS
DMS 114 small cell lung = system: DMS 114 small cell lung
RPMI-8226 leukemia = system: RPMI-8226 leukemia
M19-MEL melanoma = system: M19-MEL melanoma
HCC-2998 colon = system: HCC-2998 colon
ACHN renal = system: ACHN renal
HCT-116 colon = system: HCT-116 colon
SK-MEL-28 melanoma = system: SK-MEL-28 melanoma
UACC-62 melanoma = system: UACC-62 melanoma
CCRF-CEM leukemia = system: CCRF-CEM leukemia
LOX IMVI melanoma = system: LOX IMVI melanoma
HOP-92 NSCLC = system: HOP-92 NSCLC
KM12 colon = system: KM12 colon
LXFL 529 NSCLC = system: LXFL 529 NSCLC
XF 498 CNS = system: XF 498 CNS
HCT-15 colon = system: HCT-15 colon
SK-MEL-2 melanoma = system: SK-MEL-2 melanoma
HOP-62 NSCLC = system: HOP-62 NSCLC
SF-539 CNS = system: SF-539 CNS
IGROV1 ovarian = system: IGROV1 ovarian
EKVX NSCLC = system: EKVX NSCLC
SK-MEL-5 melanoma = system: SK-MEL-5 melanoma
CAKI-1 renal = system: CAKI-1 renal
NCI-H226 lung = system: NCI-H226 lung
MOLT-4 leukemia = system: MOLT-4 leukemia
HT29 colon = system: HT29 colon
NCI-H522 lung = system: NCI-H522 lung
UACC-257 melanoma = system: UACC-257 melanoma
SW-620 colon = system: SW-620 colon
RXF 393 renal = system: RXF 393 renal
SF-268 CNS = system: SF-268 CNS
RXF-631 renal = system: RXF-631 renal
SNB-78 CNS = system: SNB-78 CNS
OVCAR-8 ovarian = system: OVCAR-8 ovarian
SN12C renal = system: SN12C renal
DLD-1 colon = system: DLD-1 colon
M14 melanoma = system: M14 melanoma
OVCAR-5 ovarian = system: OVCAR-5 ovarian
UO-31 renal = system: UO-31 renal
TK-10 renal = system: TK-10 renal
DMS 273 small cell lung = system: DMS 273 small cell lung
A498 renal = system: A498 renal
KM20L2 colon = system: KM20L2 colon
SNB-75 CNS = system: SNB-75 CNS

Measured: TGI

CCOC(=O)C(=O)Nc1cccc(Cl)c1C
not listed: DMS 273 small cell lung | A498 renal | KM20L2 colon | SNB-75 CNS
> 100 µM: all other assays above

CC(O)C(C(=O)O)N(CC1(O)OCC(O)C(O)C1O)N=O (configuration not stated)
not listed: HOP-18 NSCLC | OVCAR-4 ovarian | SNB-19 CNS | SF-295 CNS | HCT-15 colon | SK-MEL-5 melanoma | CAKI-1 renal | NCI-H226 lung | SF-268 CNS | SN12C renal
> 100 µM: all other assays above
